US5547962A, “5-amino-8-methyl-7-pyrrolidinylquinoline-3-carboxylic acid derivative” (priority 1993, dated 1996)
In brackets after ≈: the same amount, converted by molar mass.

How the values were obtained:
CHL cells = test: Chromosomal aberration test with a Chinese hamster lung cell line (CHL); type: cell-based
Protocol: The chromosomal aberration test was conducted with a Chinese hamster lung cell line (CHL). 2-(2-Furyl)-3-(5-nitro-2-furyl)acrylamide was used as a positive control. Cells treated with the test compounds were cultured for 6 h at 37° C. in 5% CO2 -humidified air. Following the 6 h treatment the cells were washed. Fresh medium was added to the washed cells and they were cultured for a further 18 h. Colcemide was added to the cultures 2 h before the fixation of chromosome preparation, in order to collect metaphase cells.

Male Hartley guinea pigs = type: in vivo; details: 10 mg/kg i.v.; for phototoxicity, in words: UVA
Protocol: Male Hartley guinea pigs were intravenously administered test compounds at a dose of 10 mg/kg, and immediately exposed to UVA on their backs for 90 minutes.

Male Wistar rats = test: Convulsions, intracerebroventricular (i.c.v.) administration with fenbufen; type: in vivo, rat; details: 20 μg i.c.v., fenbufen 50 mg/kg i.p.
Protocol: Male Wistar rats weighing 180-220 g were anesthetized with sodium pentobarbital (45 mg/kg, i.p.) and fixed in a stereotaxic apparatus. For the intracerebroventricular injection, a 0.6 mm diameter stainless steel guide cannula was implanted in each rat, being positioned 1.5 mm above the left lateral cerebroventricle (A: 6.2, R: 1.0, H: +1.0), according to the atlas of De Groot (1959). The guide cannula was fixed with dental cement on the skull and it was closed with a 0.3 mm diameter stainless steel stylet. To prevent infection, 10,000 units of potassium penicillin G were injected intramuscularly. The rats were allowed a few days to recover from the surgery.
For the measurement of convulsions, 30 min after intraperitoneal injection of 50 mg/kg of fenbufen, 20 μg of the test compounds was given through a 0.3 mm diameter of stainless steel cannula with a polyethylene catheter, which was 1.5 mm longer than the guide cannula in order to be inserted into the […] cerebroventricle (H: +1.0). […] The position of the intracerebroventricular cannula was confirmed by the injection of 10 μl of 1% evans blue followed by sectioning of the brain of each rat which had been used in the experiment.

male ICR mice = test: Convulsions, intraperitoneal (i.p.) administration with fenbufen; details: 100 mg/kg i.p., fenbufen 100 mg/kg orally
Protocol: Thirty minutes later, they were injected intraperitoneally with the test compounds at a dose of 100 mg/kg. Thereafter, the onset of convulsions was recorded.

[1] = tested on: polychromatic erythrocytes (PCEs); test: Micronucleus test, bone marrow of mice; type: in vivo, BDF 1 mice; details: percent of the number of MNPCEs per 1,000 PCEs; 250 mg/kg i.p., 24 h
Protocol: Nine-week-old male BDF 1 mice were used in this test. The test compounds were injected intraperitoneally with a dose of 250 mg/kg. After 24 h mice were sacrificed and the bone marrow of the femur was collected. Bone marrow smears were fixed on the slides with methanol and stained with Giemsa according to the usual method. For each animal, the number of micronucleated polychromatic erythrocytes (MNPCEs) per 1,000 polychromatic erythrocytes (PCEs) was counted under the microscope. Cyclophosphamide was used as a positive control.

S. aureus FDA 209P JC-1 = test: Antibacterial activity, MIC by agar dilution; type: cell-based; details: Staphylococcus aureus, FDA209P; laboratory standard strain, gram +
Excerpt: (§1) The strains employed were as follows:
(§2) Staphylococcus aureus (S. aureus)

S. aureus HPC292 = test: Antibacterial activity, MIC by agar dilution; type: cell-based; details: Staphylococcus aureus, clinically isolated strain, gram +
Excerpt: as §1, §2

S. aureus HPC308 = test: Antibacterial activity, MIC by agar dilution; type: cell-based; details: Staphylococcus aureus, clinically isolated strain, gram +
Excerpt: as §1, §2

S. aureus HPC527 = test: Antibacterial activity, MIC by agar dilution; type: cell-based; details: Staphylococcus aureus, clinically isolated strain, gram +
Excerpt: as §1, §2

E. coli NIHJ JC-2 = test: Antibacterial activity, MIC by agar dilution; type: cell-based; details: Escherichia coli, NIHJJC2; laboratory standard strain, gram -
Excerpt: as §1
Escherichia coli (E. coli)

K. pneumoniae HNR828 = test: Antibacterial activity, MIC by agar dilution; type: cell-based; details: Klebsiella pneumoniae, clinically isolated strain, gram -
Excerpt: as §1
(§3) Klebsiella pneumoniae (K. pneumoniae)

K. pneumoniae HNR858 = test: Antibacterial activity, MIC by agar dilution; type: cell-based; details: Klebsiella pneumoniae, clinically isolated strain, gram -
Excerpt: as §1, §3

K. pneumoniae HNR869 = test: Antibacterial activity, MIC by agar dilution; type: cell-based; details: Klebsiella pneumoniae, clinically isolated strain, gram -
Excerpt: as §1, §3

K. pneumoniae PCI-602 = test: Antibacterial activity, MIC by agar dilution; type: cell-based; details: Klebsiella pneumoniae, PCI602; laboratory standard strain, gram -
Excerpt: as §1, §3

S. marcescens HNR1544 = test: Antibacterial activity, MIC by agar dilution; type: cell-based; details: Serratia marcescens, clinically isolated strain, gram -
Excerpt: as §1
(§4) Serratia marcescens (S. marcescens)

S. marcescens HNR1767 = test: Antibacterial activity, MIC by agar dilution; type: cell-based; details: Serratia marcescens, clinically isolated strain, gram -
Excerpt: as §1, §4

S. marcescens HNR1792 = test: Antibacterial activity, MIC by agar dilution; type: cell-based; details: Serratia marcescens, clinically isolated strain, gram -
Excerpt: as §1, §4

S. marcescens IAM 1184 = test: Antibacterial activity, MIC by agar dilution; type: cell-based; details: Serratia marcescens, IAM1184; laboratory standard strain, gram -
Excerpt: as §1, §4

E. cloacae 963 = test: Antibacterial activity, MIC by agar dilution; type: cell-based; details: Enterobacter cloacae, laboratory standard strain, gram -
Excerpt: as §1
(§5) Enterobacter cloacae (E. cloacae)

E. cloacae HNR1939 = test: Antibacterial activity, MIC by agar dilution; type: cell-based; details: Enterobacter cloacae, clinically isolated strain, gram -
Excerpt: as §1, §5

E. cloacae HNR1941 = test: Antibacterial activity, MIC by agar dilution; type: cell-based; details: Enterobacter cloacae, clinically isolated strain, gram -
Excerpt: as §1, §5

E. cloacae HNR1946 = test: Antibacterial activity, MIC by agar dilution; type: cell-based; details: Enterobacter cloacae, clinically isolated strain, gram -
Excerpt: as §1, §5

E. faecalis HPC948 = test: Antibacterial activity, MIC by agar dilution; type: cell-based; details: Enterococcus faecalis, clinically isolated strain, gram +
Excerpt: as §1
(§6) Enterococcus faecalis (E. faecalis)

E. faecalis HPC975 = test: Antibacterial activity, MIC by agar dilution; type: cell-based; details: Enterococcus faecalis, clinically isolated strain, gram +
Excerpt: as §1, §6

E. faecalis HPC984 = test: Antibacterial activity, MIC by agar dilution; type: cell-based; details: Enterococcus faecalis, clinically isolated strain, gram +
Excerpt: as §1, §6

A. calcoaceticus HNR904 = test: Antibacterial activity, MIC by agar dilution; type: cell-based; details: Acinetobacter calcoaceticus, clinically isolated strain, gram -
Excerpt: as §1
(§7) Acinetobacter calcoaceticus (A. calcoaceticus)

A. calcoaceticus HNR916 = test: Antibacterial activity, MIC by agar dilution; type: cell-based; details: Acinetobacter calcoaceticus, clinically isolated strain, gram -
Excerpt: as §1, §7

A. calcoaceticus HNR939 = test: Antibacterial activity, MIC by agar dilution; type: cell-based; details: Acinetobacter calcoaceticus, clinically isolated strain, gram -
Excerpt: as §1, §7

SMILES: Nc1c(F)c(N2CC[C@H](N)C2)cc2c1c(=O)c(C(=O)O)cn2C1CC1 [Reference Compound E, 5-amino-7-((S)-3-amino-1-pyrrolidinyl)-1-cyclopropyl-6-fluoro-1,4-dihydro-4-oxoquinoline-3-carboxylic acid]
- toxicity (chromosomal aberration), in words (CHL cells): observed
- phototoxicity, in words (Male Hartley guinea pigs): no phototoxicity
- death of guinea pigs (Male Hartley guinea pigs; phototoxicity test): death of two guinea pigs out of five

SMILES: O=C(O)c1cn(C2CC2)c2cc(N3CCNCC3)c(F)cc2c1=O [Ciprofloxacin, ciprofloxacin]
- Frequency of chromosomal aberration (CHL cells; Table 5-A, CHL cells, 100 μg/ml): - (<10%)
- Convulsions i.c.v.: number of animals with convulsions/number of animals tested (Male Wistar rats): 3/3
- Convulsions i.p.: number of animals with convulsions/number of animals tested (male ICR mice): 3/6

SMILES: O=P1(N(CCCl)CCCl)NCCCO1 (stereo not drawn) [Cyclophosphamide, reference compound]
- Incidence of MNPCEs [1]: 2.9%

SMILES: Cc1c(N2CC[C@H](N)C2)c(F)cc2c(=O)c(C(=O)O)cn(C3CC3)c12 [Reference Compound F, 7-((S)-3-amino-1-pyrrolidinyl)-1-cyclopropyl-6-fluoro-1,4-dihydro-8-methyl-4-oxoquinoline-3-carboxylic acid]
- toxicity (chromosomal aberration), in words (CHL cells): observed
- phototoxicity, in words (Male Hartley guinea pigs): observed
- Phototoxicity: number of animals with erythemas/number of animals tested (Male Hartley guinea pigs; UVA 90 minutes, 24 h after irradiation): 4/5

SMILES: Cc1c(N2C[C@@H](N)C(C)(C)C2)c(F)c(N)c2c(=O)c(C(=O)O)cn(C3CC3)c12 [Example 16, 5-Amino-7-((S)-3-amino-4,4-dimethyl-1-pyrrolidinyl)-1-cyclopropyl-6-fluoro-1,4-dihydro-8-methyl-4-oxoquinoline-3-carboxylic acid]
- MIC (S. aureus FDA 209P JC-1): 0.025 µg/mL
- MIC (S. aureus HPC292): 1.56 µg/mL
- MIC (S. aureus HPC308): 0.39 µg/mL
- MIC (S. aureus HPC527): 0.025 µg/mL
- MIC (E. coli NIHJ JC-2): 0.05 µg/mL (≈ 0.129 µM)
- MIC (K. pneumoniae HNR828): 12.5 µg/mL (≈ 32.2 µM)
- MIC (K. pneumoniae HNR858): 0.39 µg/mL (≈ 1 µM)
- MIC (K. pneumoniae HNR869): 3.13 µg/mL (≈ 8.06 µM)
- MIC (K. pneumoniae PCI-602): 0.003 µg/mL (≈ 0.00772 µM)
- MIC (S. marcescens HNR1544): 0.1 µg/mL (≈ 0.257 µM)
- MIC (S. marcescens HNR1767): 25 µg/mL (≈ 64.4 µM)
- MIC (S. marcescens HNR1792): 6.25 µg/mL (≈ 16.1 µM)
- MIC (S. marcescens IAM 1184): 0.39 µg/mL (≈ 1 µM)
- MIC (E. cloacae 963): 0.05 µg/mL (≈ 0.129 µM)
- MIC (E. cloacae HNR1939): 0.39 µg/mL (≈ 1 µM)
- MIC (E. cloacae HNR1941): 12.5 µg/mL (≈ 32.2 µM)
- MIC (E. cloacae HNR1946): 0.39 µg/mL (≈ 1 µM)
- MIC (E. faecalis HPC948): 0.39 µg/mL
- MIC (E. faecalis HPC975): 1.56 µg/mL
- MIC (E. faecalis HPC984): 0.2 µg/mL
- MIC (A. calcoaceticus HNR904): 6.25 µg/mL (≈ 16.1 µM)
- MIC (A. calcoaceticus HNR916): 0.025 µg/mL (≈ 0.0644 µM)
- MIC (A. calcoaceticus HNR939): 0.39 µg/mL (≈ 1 µM)
